Test results taken from US20250084091A1, “INHIBITORS OF SARS-COV-2” (The Texas A&M University System, priority 2021, published 2025).
Values after ≈ are worked out from the molar mass of the structure shown.

Tests used:
[1] = target: SARS-CoV-2 main protease (Mpro) (Severe acute respiratory syndrome coronavirus 2, UniProt P0DTD1); experiment: biochemical; details: Table 2; read-out: Enzyme IC50
[2] = tested on: SARS-CoV-2 (strain USA-WA1/2020); experiment: microbe, parasite or virus in culture; assay type: cell-based; details: Severe acute respiratory syndrome coronavirus 2; Table 2; SARS-CoV-2 infected HeLa-ACE2 cells; read-out: CoV-2 HeLa EC50
HeLa-ACE2 cells = experiment: cells; assay type: cell-based; details: Table 2, total cell count in infected plates
[3] = Uninfected host cell cytotoxicity counter screen; assay type: cell-based; details: human
Procedure, shortened: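 HeLa-ACE2 cells, uninfected, seeded at 400 cells/well with compounds and held 24 hours at 37° C., 5% CO2. Dead cells stained with Image-iT DEAD green, fixed in 4% paraformaldehyde, DAPI-counterstained and imaged. Data normalized to DMSO and 40 μM puromycin controls; concentration responses in triplicate.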

CoV-2 in Vero cells = experiment: CoV-2 Vero antiviral assay; assay type: cell-based, SARS-CoV-2; details: Severe acute respiratory syndrome coronavirus 2, Vero, read-out: CoV-2 Vero EC50/100

SMILES: Cc1cncc(C(=O)N2CCN(C(c3ccccc3)c3cccc(Cl)c3)CC2)c1 (centres unmarked) [MKP-1272, 1-[(3-chlorophenyl)(phenyl)methyl]-4-(5-methylpyridine-3-carbonyl)piperazine]
- IC50 [1]: 365 nM
- EC50 [2]: 246 nM
- EC50 (HeLa-ACE2 cells): 117 nM
- CC50 at 24 h [3]: 33600 nM
- EC50 (CoV-2 in Vero cells): 10 µg/mL (≈ 24.6 µM)

SMILES: O=C(c1cncc(Br)c1)N1CCC(=C(c2ccccc2)c2ccccc2)CC1 [NZ-771, 3-bromo-5-[4-(diphenylmethylidene)piperidine-1-carbonyl]pyridine]
- IC50 [1]: 250 nM
- EC50 [2]: 940 nM
- EC50 (HeLa-ACE2 cells): > 9610 nM
- CC50 at 24 h [3]: > 39800 nM
- EC50 (CoV-2 in Vero cells): 20 µg/mL (≈ 46.2 µM)

SMILES: O=C(c1cncc(Br)c1)N1CCN(C2c3ccccc3C=Cc3ccccc32)CC1 [NZ-773, (5-bromo-3-pyridyl)-[4-(2-tricyclo[9.4.0.03,8]pentadeca-1(11),3(8),4,6,9,12,14-heptaenyl)piperazin-1-yl]methanone]
- IC50 [1]: 100 nM
- EC50 [2]: 700 nM
- EC50 (HeLa-ACE2 cells): > 9610 nM
- CC50 at 24 h [3]: > 39800 nM
- EC50 (CoV-2 in Vero cells): 20 µg/mL (≈ 43.4 µM)

SMILES: O=C(c1cncc(Br)c1)N1CCN(C2c3ccccc3CSc3ccccc32)CC1 (centres unmarked) [NZ-774, (5-bromo-3-pyridyl)-[4-(6,11-dihydrobenzo[c][1]benzothiepin-11-yl)piperazin-1-yl]methanone]
- IC50 [1]: 130 nM
- EC50 [2]: 630 nM
- EC50 (HeLa-ACE2 cells): > 9610 nM
- CC50 at 24 h [3]: > 39800 nM
- EC50 (CoV-2 in Vero cells): 5 µg/mL (≈ 10.4 µM)

SMILES: O=C(c1cncc(Br)c1)N1CCN(C2c3ccccc3COc3ccccc32)CC1 (centres unmarked) [NZ-776, (5-bromo-3-pyridyl)-[4-(6,11-dihydrobenzo[c][1]benzoxepin-11-yl)piperazin-1-yl]methanone]
- IC50 [1]: 140 nM
- EC50 [2]: 480 nM
- EC50 (HeLa-ACE2 cells): > 9610 nM
- CC50 at 24 h [3]: > 39800 nM
- EC50 (CoV-2 in Vero cells): 2.5 µg/mL (≈ 5.38 µM)

SMILES: Cc1cncc(C(=O)N2CCC(C(O)(c3ccccc3)c3ccccc3)CC2)c1 [NZ-782, [1-(5-methylpyridine-3-carbonyl)piperidin-4-yl]diphenylmethanol]
- IC50 [1]: 230 nM
- EC50 [2]: 570 nM
- EC50 (HeLa-ACE2 cells): > 9610 nM
- CC50 at 24 h [3]: > 39800 nM
- EC50 (CoV-2 in Vero cells): 5 µg/mL (≈ 12.9 µM)

SMILES: Cc1cncc(C(=O)N2CCC(=C(c3ccccc3)c3ccccc3)CC2)c1 [NZ-783, 3-[4-(diphenylmethylidene)piperidine-1-carbonyl]-5-methylpyridine]
- IC50 [1]: 85 nM
- EC50 [2]: 570 nM
- EC50 (HeLa-ACE2 cells): > 9610 nM
- CC50 at 24 h [3]: 25600 nM
- EC50 (CoV-2 in Vero cells): 10 µg/mL (≈ 27.1 µM)

SMILES: Cc1cncc(C(=O)N2CCC(C(c3ccccc3)c3ccccc3)CC2)c1 [NZ-786, 3-[4-(diphenylmethyl)piperidine-1-carbonyl]-5-methylpyridine]
- IC50 [1]: 170 nM
- EC50 [2]: 570 nM
- EC50 (HeLa-ACE2 cells): > 9610 nM
- CC50 at 24 h [3]: 28500 nM
- EC50 (CoV-2 in Vero cells): 10 µg/mL (≈ 27 µM)

SMILES: Cc1cncc(C(=O)N2CCC(=C3c4ccccc4C=Cc4ccccc43)CC2)c1 [NZ-793, (5-methyl-3-pyridyl)-[4-(2-tricyclo[9.4.0.03,8]pentadeca-1(11),3(8),4,6,9,12,14-heptaenylidene)-1-piperidyl]methanone]
- IC50 [1]: 120 nM
- EC50 [2]: 527 nM
- EC50 (HeLa-ACE2 cells): 520 nM
- CC50 at 24 h [3]: 33100 nM
- EC50 (CoV-2 in Vero cells): 5 µg/mL (≈ 12.7 µM)

SMILES: Cc1cncc(C(=O)N2CCC(=C3c4ccccc4CSc4ccccc43)CC2)c1 [NZ-794, [4-(6H-benzo[c][1]benzothiepin-11-ylidene)-1-piperidyl]-(5-methyl-3-pyridyl)methanone]
- IC50 [1]: 60 nM
- EC50 [2]: 155 nM
- EC50 (HeLa-ACE2 cells): 345 nM
- CC50 at 24 h [3]: 39200 nM
- EC50 (CoV-2 in Vero cells): 2.5 µg/mL (≈ 6.06 µM)

SMILES: O=C(c1cncc(Br)c1)N1CCN(C2c3ccccc3CCc3ccccc32)CC1 [ZS-316, (5-bromo-3-pyridyl)-[4-(2-tricyclo[9.4.0.03,8]pentadeca-1(11),3(8),4,6,12,14-hexaenyl)piperazin-1-yl]methanone]
- IC50 [1]: 140 nM
- EC50 [2]: 700 nM
- EC50 (HeLa-ACE2 cells): > 9610 nM
- CC50 at 24 h [3]: > 39800 nM
- EC50 (CoV-2 in Vero cells): 2.5 µg/mL (≈ 5.41 µM)

SMILES: Cc1cncc(C(=O)N2CCN(C3c4ccccc4CCc4ccccc43)CC2)c1 [ZS-329, (5-methyl-3-pyridyl)-[4-(2-tricyclo[9.4.0.03,8]pentadeca-1(11),3(8),4,6,12,14-hexaenyl)piperazin-1-yl]methanone]
- IC50 [1]: 89 nM
- EC50 [2]: 330 nM
- EC50 (HeLa-ACE2 cells): > 9610 nM
- CC50 at 24 h [3]: 21300 nM
- EC50 (CoV-2 in Vero cells): 5 µg/mL (≈ 12.6 µM)

SMILES: Cc1cncc(C(=O)N2CCC(=C3c4ccccc4CCc4ccccc43)CC2)c1 [ZS-336, (5-methyl-3-pyridyl)-[4-(2-tricyclo[9.4.0.03,8]pentadeca-1(11),3(8),4,6,12,14-hexaenylidene)-1-piperidyl]methanone]
- IC50 [1]: 54 nM
- EC50 [2]: 252 nM
- EC50 (HeLa-ACE2 cells): 314 nM
- CC50 at 24 h [3]: 31500 nM
- EC50 (CoV-2 in Vero cells): 2.5 µg/mL (≈ 6.34 µM)

SMILES: Nc1cncc(C(=O)N2CCN(C3c4ccccc4CCc4ccccc43)CC2)c1 [ZS-342, (5-amino-3-pyridyl)-[4-(2-tricyclo[9.4.0.03,8]pentadeca-1(11),3(8),4,6,12,14-hexaenyl)piperazin-1-yl]methanone]
- IC50 [1]: 150 nM
- EC50 [2]: 406 nM
- EC50 (HeLa-ACE2 cells): 1180 nM
- CC50 at 24 h [3]: > 39800 nM
- EC50 (CoV-2 in Vero cells): 5 µg/mL (≈ 12.5 µM)

SMILES: Cc1cncc(C(=O)N2CCN(C3c4ccccc4NC(=O)c4ccccc43)CC2)c1 (centres unmarked) [ZS-355, 11-[4-(5-methylpyridine-3-carbonyl)piperazin-1-yl]-5,11-dihydrobenzo[c][1]benzazepin-6-one]
- IC50 [1]: 53 nM
- EC50 [2]: 223 nM
- EC50 (HeLa-ACE2 cells): 377 nM
- CC50 at 24 h [3]: > 39800 nM
- EC50 (CoV-2 in Vero cells): 20 µg/mL (≈ 48.5 µM)

SMILES: CC(=O)Nc1cncc(C(=O)N2CCN(C3c4ccccc4CCc4ccccc43)CC2)c1 [ZS-361, N-[5-[4-(2-tricyclo[9.4.0.03,8]pentadeca-1(11),3(8),4,6,12,14-hexaenyl)piperazine-1-carbonyl]-3-pyridyl]acetamide]
- IC50 [1]: 44 nM
- EC50 [2]: 1180 nM
- EC50 (HeLa-ACE2 cells): 4320 nM
- CC50 at 24 h [3]: 34200 nM
- EC50 (CoV-2 in Vero cells): 20 µg/mL (≈ 45.4 µM)
